In BindingDB's records for doi:10.7270/Q2S46QC1 (Nmmlsc, 2009):

What follows are compounds tested against Apoptosis regulator Bcl-2 (Homo sapiens, UniProt P10415) (assay: Bcl-2 Bim peptide interaction hit potency – biochemical, dose response, multiplexed HTS hits, confirmation (AID 2075)). Conditions: not given.
Sequence of Apoptosis regulator Bcl-2 (P10415 whole entry): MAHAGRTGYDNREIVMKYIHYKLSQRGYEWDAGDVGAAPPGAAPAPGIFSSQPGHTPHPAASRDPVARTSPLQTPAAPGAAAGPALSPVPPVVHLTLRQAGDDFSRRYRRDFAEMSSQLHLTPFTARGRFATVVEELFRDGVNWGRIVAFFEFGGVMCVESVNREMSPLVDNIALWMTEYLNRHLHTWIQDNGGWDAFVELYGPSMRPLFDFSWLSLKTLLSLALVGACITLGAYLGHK
Compound `O=C1NC(=O)C2(Cc3c(nc4ccccn4c3=O)N3CCCCCC32)C(=O)N1Cc1ccccc1` (configuration not stated) [MLS000083668] has an EC50 of 2.25 µM.
`O=[N+]([O-])c1c(NCCCO)cc(Sc2nc3ccccc3s2)c2nonc12` [MLS000520994] gave an EC50 of 1.91 µM.
`Cc1cc2nn(-c3cccc4ccccc34)nc2cc1N` [SMR000076237] was tested, and the EC50 was 1.9 µM.
Compound `CC(=O)OCCCNc1cc(Sc2nc3ccccc3s2)c2nonc2c1[N+](=O)[O-]` [MLS000521052] has an EC50 of 0.84 µM.
`Cc1ccc(C=NNC(=O)CSc2nnc(-c3ccc(Cl)cc3)n2-c2ccccc2)o1` [SMR000218122] was tested, and the EC50 was 12.3 µM.
`CN(CCO)c1cc(Sc2nc3ccccc3s2)c2nonc2c1[N+](=O)[O-]` [MLS000520995] was tested, and the EC50 was 6.35 µM.

Same assay, conditions: inactive by the depositor's call
Compound `O=C(NCc1ccccc1)c1ccc2nc(-c3ccco3)c(-c3ccco3)nc2c1` [2,3-bis(furan-2-yl)-N-(phenylmethyl)quinoxaline-6-carboxamide] has an EC50 of 20.6 µM.
In the case of `COc1ccc(CCNC(=O)c2ccc3nc(-c4ccco4)c(-c4ccco4)nc3c2)cc1OC` [N-[2-(3,4-dimethoxyphenyl)ethyl]-2,3-di-2-furylquinoxaline-6-carboxamide], the EC50 is reported as 25.8 µM.
`Clc1nc(NCc2cccnc2)nc(N2CCOCC2)n1` [MLS000121154] was tested, and the EC50 was 18.9 µM.
For `Cc1ccc(-c2nc3c(c(=O)[nH]c(=O)n3Cc3ccccc3)n2C)o1` [7-methyl-8-(5-methyl-2-furanyl)-3-(phenylmethyl)purine-2,6-dione], the EC50 was 48.2 µM.
For `COc1ccccc1NC1=C(NC(C)=O)C(=O)c2ccccc2C1=O` [N-[3-(2-methoxyanilino)-1,4-dioxonaphthalen-2-yl]acetamide], the EC50 was 12.1 µM.
For `CCN(CC)C(=O)COC(=O)c1cc(-c2ccco2)nc2ccccc12` [SMR000377201], the EC50 was 29.5 µM.
